Measured values as given in patent publication US12247031B2, “Cyclobutyl pyrazolopyrimidine PDE9 inhibitors” (Merck Sharp & Dohme LLC, priority 2018, dated 2025).

These compounds were tested against Human PDE9 (PDE9A2) (Homo sapiens (Human), UniProt O76083) (assay: PDE9 IMAP fluorescence polarization assay). Conditions: human PDE9A2, FAM-cGMP substrate 50 nM, IMAP FP, apparent inhibition constant.
Assay type: biochemical
Experimental: The activity of the compounds in accordance with the present invention as PDE9 inhibitors may be readily determined without undue experimentation using a fluorescence polarization (FP) methodology that is well known in the art (Huang, W., et al., J. Biomol Screen. 2002, 7: 215).
In a typical experiment the PDE9 inhibitory activity of the compounds of the present invention was determined in accordance with the following experimental method.
Human PDE9 (PDE9A2, GenBank Accession No. NM_001001567), full length with N-terminal GST tag, was purchased from BPS Bioscience. The fluorescence polarization assay for cyclic nucleotide phosphodiesterases was performed using an IMAP® FP kit supplied by Molecular Devices, Sunnyvale, CA (product #R8139). IMAP® technology has been applied previously to phosphodiesterase assays (Huang, W., et al., J. Biomol Screen. 2002, 7: 215).
Fluorescence polarization (mP) was calculated from the parallel (S) and perpendicular (P) fluorescence of each sample well and the analogous values for the median control well, containing only substrate (So and Po), using the following equation: Polarization (mP)=1000*(S/So−P/Po)/(S/So+P/Po).
Dose-inhibition profiles for each compound were characterized by fitting the mP data to a four-parameter equation given below. The apparent inhibition constant (KI), the maximum inhibition at the low plateau relative to “100% Inhibition Control” (Imax; e.g. 1=>same as this control), the minimum inhibition at the high plateau relative to the “0% Inhibition Control” (Imin, e.g. 0=>same as the no drug control) and the Hill slope (nH) are determined by a non-linear least squares fitting of the mP values as a function of dose of the compound using an in-house software based on the procedures described by Mosser et al., JALA. 2003, 8: 54-63, using the following equation: […]

| Compound | Ki [nM] |
| --- | --- |
| CC(C1CCOCC1)n1nc(C#N)c2c(=O)[nH]c(C3CCC3n3cccn3)nc21 (centres unmarked) [Example 40, 6-(2-(1H-pyrazol-1-yl)cyclobutyl)-4-oxo-1-(1-(tetrahydro-2H-pyran-4-yl)ethyl)-4,5-dihydro-1H-pyrazolo[3,4-d]pyrimidine-3-carbonitrile] | 225 |
| CC(C1CCOCC1)n1nc(C#N)c2c(=O)[nH]c(C3CCC3n3cc(C#N)cn3)nc21 (centres unmarked) [Example 41, 6-(2-(4-cyano-1H-pyrazol-1-yl)cyclobutyl)-4-oxo-1-(1-(tetrahydro-2H-pyran-4-yl)ethyl)-4,5-dihydro-1H-pyrazolo[3,4-d]pyrimidine-3-carbonitrile] | 608 |
| C[C@@H](c1ccc(C(F)(F)F)nc1)n1nc(C#N)c2c(=O)[nH]c(C3CCC3n3cc(C(F)(F)F)cn3)nc21 (stereo partly drawn) [Example 43, 4-oxo-6-(2-(4-(trifluoromethyl)-1H-pyrazol-1-yl)cyclobutyl)-1-((S)-1-(6-(trifluoromethyl)pyridin-3-yl)ethyl)-4,5-dihydro-1H-pyrazolo[3,4-d]pyrimidine-3-carbonitrile] | 4.75 |
| CC(c1ccc(C(F)(F)F)nc1)n1nc(C#N)c2c(=O)[nH]c(C3CCC3n3cc(C(F)F)cn3)nc21 (centres unmarked) [Example 45, 6-(2-(4-(difluoromethyl)-1H-pyrazol-1-yl)cyclobutyl)-4-oxo-1-(1-(6-(trifluoromethyl)pyridin-3-yl)ethyl)-4,5-dihydro-1H-pyrazolo[3,4-d]pyrimidine-3-carbonitrile] | 115 |
| CC(C1CCOCC1)n1nc(C#N)c2c(=O)[nH]c(C3CCC3n3cccn3)nc21 (centres unmarked) [Example 46, 6-(2-(1H-pyrazol-1-yl)cyclobutyl)-4-oxo-1-(1-(tetrahydro-2H-pyran-4-yl)ethyl)-4,5-dihydro-1H-pyrazolo[3,4-d]pyrimidine-3-carbonitrile] | 608 |
